# Results: patent US6440972B1, “Heterocyclic compounds useful as oxido-squalene cyclase inhibitors” (Zeneca Limited, priority 1997, dated 2002)
# Tests used:
# cholesterol biosynthesis = assay: In vivo test to measure inhibition of oxido-squalene cyclase / cholesterol biosynthesis in the rat; conditions: dosed at 2 mg.kg^−1, oral, rat liver
# Description: (b) In vivo Test to Measure Inhibition of Oxido-squalene Cyclase
# The ability of a compound to inhibit oxido-squalene cyclase and/or inhibit cholesterol biosynthesis may be assessed by a routine laboratory procedure carried out in the rat. The test involves administration of the compound to rats on a reversed lighting regimen. Female rats (35-55 g) are housed in reverse lighting conditions (red light from 0200 h-[…]) for a period of about 2 weeks prior to test. Animals are allowed free access to chow and drinking water throughout this period. At test, animals should weigh 100-140 g. The rats are dosed orally with the compound (typically 10-50 mg/kg) formulated in a polyethylene glycol/hydroxypropylmethyl cellulose mix. After 1 hour the rats are given triturated sodium mevalonate (15 μCi.kg^−1) intraperitoneally. Two hours after administration of the compound the rats are terminated and a piece of liver removed and weighed. The tissue is saponified at 80° C. for 2 hours in an ethanolic/potassium hydroxide solution (80% w/v aqueous KOH diluted 1:10 with ethanol). Water (2 ml) is added and the mixture extracted with iso-hexane (2×5 ml). The organic extracts are combined, evaporated to dryness under a stream of nitrogen and the residue is dissolved in a mixture of acetonitrile/iso-propanol (300 μl). […] The radio-label content of each fraction is assessed using a radio chemical flow detector. […]
# [1] = target: T1, microsomal oxido-squalene cyclase (Rattus norvegicus, UniProt P48450); assay: In vitro test to measure inhibition of oxido-squalene cyclase (rat liver microsomes); assay type: biochemical; conditions: concentration of 0.01 μM
# T1 construct: Microsomes are prepared from rat liver according to methods known in the art; from tissue; host or cells: rat liver microsomes
# T1 sequence (P48450 1-733): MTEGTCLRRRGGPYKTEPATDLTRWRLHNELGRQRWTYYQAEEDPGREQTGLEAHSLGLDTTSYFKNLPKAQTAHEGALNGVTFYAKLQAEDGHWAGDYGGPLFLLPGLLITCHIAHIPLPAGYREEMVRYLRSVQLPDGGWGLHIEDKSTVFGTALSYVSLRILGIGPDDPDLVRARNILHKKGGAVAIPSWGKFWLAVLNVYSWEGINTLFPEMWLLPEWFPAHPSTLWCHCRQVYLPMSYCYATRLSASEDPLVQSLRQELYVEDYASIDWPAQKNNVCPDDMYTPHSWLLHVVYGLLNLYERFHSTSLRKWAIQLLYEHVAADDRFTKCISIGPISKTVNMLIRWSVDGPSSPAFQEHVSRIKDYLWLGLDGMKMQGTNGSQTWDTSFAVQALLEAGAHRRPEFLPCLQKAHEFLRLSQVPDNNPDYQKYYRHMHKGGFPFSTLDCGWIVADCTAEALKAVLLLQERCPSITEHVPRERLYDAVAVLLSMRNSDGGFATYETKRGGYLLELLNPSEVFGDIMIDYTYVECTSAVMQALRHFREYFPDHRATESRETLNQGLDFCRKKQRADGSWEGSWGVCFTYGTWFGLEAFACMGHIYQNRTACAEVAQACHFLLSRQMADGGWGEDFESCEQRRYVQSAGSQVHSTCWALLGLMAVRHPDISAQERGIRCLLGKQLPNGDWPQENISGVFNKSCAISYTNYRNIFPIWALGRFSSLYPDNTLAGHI
# Description: (a) In vitro Test to Measure Inhibition of Oxido-squalene Cyclase
# This test measures the inhibition of microsomal oxido-squalene cyclase in vitro by compounds at set concentrations in the incubation medium.
# Microsomes are prepared from rat liver according to methods known in the art, for example, the method described in published European Patent Application No 324,421 and stored in liquid nitrogen prior to assay. Assay vials are kept at 37° C. throughout the incubation. The microsomes typically contain 15-20 mg of protein per ml of microsomes. For the assay, 1 ml of microsomes are diluted by the addition of 722 μl of 50 mM phosphate buffer pH 7.4.
# Phosphate buffered Tween® 80 (polyoxyethylene sorbitan […]) is prepared by adding 0.1 g Tween® 80 to 100 ml of 50 mM phosphate buffer.
# A stock solution of oxido-squalene is made up as a solution in ethanol (0.65 mg.ml.^−1). 18 μl of radio-labelled oxido-squalene (1 μCi.ml^−1) is evaporated to dryness under a stream of nitrogen and redissolved in 1 ml of ethanol and 1 ml of the stock solution of oxido-squalene is added.
# The test compound is dissolved in dimethyl sulphoxide to give a 10^−1M stock solution. […]
# The samples are then placed in a water bath at 80° C. for 2 hours to saponify. […] Reaction rate is measured as the conversion of oxido-squalene to lanosterol, and the effects of test compounds are expressed as an inhibition of this process.
SMILES,melting point [°C],inhibition of rat cholesterol biosynthesis (cholesterol biosynthesis),inhibition of rat microsomal oxido-squalene cyclase [1]
O=C(C1CCN(c2ccncc2F)CC1)N1CCN(S(=O)(=O)c2ccc(Br)cc2)CC1,192,–,–
O=C(C1CCN(c2ccncc2Cl)CC1)N1CCN(S(=O)(=O)c2ccc(Br)cc2)CC1 [Example 1],–,about 79%,about 79%
